Columns and labels:
[1] = biological target: T1, TmFtsH (FtsH from Thermotoga maritima), full length (Thermotoga maritima, UniProt Q9WZ49, H423Y); test: cryo-EM structure ([…] A); format: binding; conditions: six ADP per hexamer, one in each ATPase domain; endogenous co-purified ADP, none added; MSP1D1 nanodiscs, pH 7.6; C6 symmetry
T1 construct: full length, His-tag purification (HisTrap), E. coli BL21(DE3) pLysS membranes, LDAO, reconstituted in MSP1D1 nanodiscs with soybean polar lipids; homohexamer; only ATPase and protease domains modelled (2484 residues per hexamer)

[2] = biological target: the molecule itself; test: cryo-EM structure; TmFtsH H423Y in MSP1D1 nanodiscs (soybean polar lipids), diluted in 20 mM HEPES pH 7.6, 100 mM NaCl, 0.05% CHAPS; no ADP or ATP added; C6 reconstruction at 3.15 Å (C1: 3.4 Å) of the ATPase and protease domains; full-length reconstruction at 7.9 Å without symmetry

| Molecule | cryo-EM structure (3.15 A) [1] | stoichiometry N [2] |
| --- | --- | --- |
| Nc1ncnc2c1ncn2[C@@H]1O[C@H](COP(=O)(O)OP(=O)(O)O)[C@@H](O)[C@H]1O [ADP] | ADP bound endogenously to TmFtsH and survived the co-purification and reconstitution processes | – |
| Thermotoga maritima FtsH (TmFtsH) H423Y mutant, full length (enzyme, UniProt Q9WZ49 1-610, looked up, FtsH (Filamentation Temperature Sensitive Protein H) of Thermotoga maritima, full-length cDNA in the pET24-derived pMSCG-7 plasmid, with the H423Y mutation; 610 residues are named in the comparison with YME1; The vector probably adds an N-terminal His6 tag with a TEV site (surmised), and no cleavage is described; The atomic model 7TDO covers only the ATPase and protease domains (2484 residues in …)) MNRSNIWNLLFTILIIVTLFWLARFFYVENSPVSKLSYTSFVQMVEDERSVVSEVVIRDDGVLRVYTKDGRVYEVDAPWAVNDSQLIEKLVSKGIKVSGERSGSSSFWINVLGTLIPTILFIVVWLFIMRSLSGRNNQAFTFTKSRATMYKPSGNKRVTFKDVGGAEEAIEELKEVVEFLKDPSKFNRIGARMPKGILLVGPPGTGKTLLARAVAGEANVPFFHISGSDFVELFVGVGAARVRDLFAQAKAHAPCIVFIDEIDAVGRHRGAGLGGGHDEREQTLNQLLVEMDGFDSKEGIIVMAATNRPDILDPALLRPGRFDKKIVVDPPDMLGRKKILEIHTRNKPLAEDVNLEIIAKRTPGFVGADLENLVNEAALLAAREGRDKITMKDFEEAIDRVIAGPARKSKLISPKEKRIIAYYEAGHAVVSTVVPNGEPVHRISIIPRGYKALGYTLHLPEEDKYLVSRNELLDKLTALLGGRAAEEVVFGDVTSGAANDIERATEIARNMVCQLGMSEELGPLAWGKEEQEVFLGKEITRLRNYSEEVASKIDEEVKKIVTNCYERAKEIIRKYRKQLDNIVEILLEKETIEGDELRRILSEEFEKVVE | – | 6 |
